Legend:
Yta7 = assay: AlphaScreen binding of biotinylated H3 N-tail peptide (unmodified or acetylated) to full-length Yta7; design: species or system Saccharomyces cerevisiae; conditions: for binding to Yta7: 50 nM 10xHis-3xFlag-Yta7, 50 nM biotinylated H3 (1–22 amino acid) peptide, 50 mM Mops pH 7.4, 100 mM NaCl, BSA 0.1 mg/ml, on ice 1.5 h
Method: (§1) We performed AlphaScreen assays using a 6xHis detection kit (PerkinElmer). The biotinylated unmodified and the all-four-lysine acetylated H3 peptide (1–22 amino acids) were synthesized by GenScript. We individually mixed the purified 50 nM 10xHis-3xFlag-Yta7, 10xHis-3xFlag-Yta7ΔBRD, 10xHis-3xFlag-Yta7ΔBIMΔBRD, 6xHis-MBP-BIM, 6xHis-MBP-BRD, and the complex of 6xHis-MBP-BRD and MBP-BIM with 50 nM biotinylated and unmodified or acetylated H3 (1–22 amino acid) peptides, respectively, and incubated the mixtures on ice for 1.5 h with the streptavidin-coated donor beads (5 μg/ml) and nickel-chelated acceptor beads (5 μg/ml) in 50 mM Mops (pH 7.4), 100 mM NaCl, and bovine serum albumin (0.1 mg/ml). For nucleosome-binding assay, we used 50 nM 10xHis-3xFlag-Yta7 and 100 nM biotinylated human nucleosome. We incubated the mixture for 2 h on ice with the same concentration donor and acceptor beads. The donor beads contain a photosensitizer that converts ambient oxygen into short-lived singlet oxygen upon 680 nm light activation. When the acceptor beads are brought close enough to the donor beads by interaction between His-tagged proteins and biotinylated peptides, singlet oxygen can diffuse from the donor to the acceptor beads to transfer the energy to the thioxene derivatives of the acceptor beads, resulting in light emission at 520 to 620 nm range.

[1] = Malachite Green ATPase assay of Yta7; type: biochemical; conditions: Malachite Green phosphate assay, 2 mM ATP, 25 mM Hepes pH 7.6, 2 mM MgCl2, 150 mM KCl, 1 mM DTT, room temperature 1 h, A620; three independent experiments; Fig. S1C
Method: The Malachite Green Phosphate assay kit (Sigma–Aldrich) was used to measure the ATP hydrolysis rate of Yta7 present in different nucleotides. Yta7 was incubated in assay buffer (25 mM Hepes [pH 7.6], 2 mM MgCl2, 150 mM KCl, and 1 mM DTT) with or without histone-3 peptide (1–24 amino acids). Either 2 mM ATP or 2 mM ATPγS or 2 mM ADP (negative control) was added to initiate the reaction at room temperature for 1 h. Absorbance at 620 nm was measured in a Molecular Devices SpectraMax M2e microplate reader.

Yta7_ΔBRD = assay: AlphaScreen binding of H3 peptide to Yta7 lacking BRD; design: species or system Saccharomyces cerevisiae; conditions: 50 nM construct (954–1132 deleted), 50 nM biotinylated H3 (1–22), pH 7.4, on ice 1.5 h, n = 3, Fig. S9B
Method: as §1

6xHis-MBP-BIM = assay: AlphaScreen binding of H3 peptide to MBP-fused BIM; design: species or system Saccharomyces cerevisiae; conditions: n = 3, Fig. S9D
Method: as §1

Yta7_ΔBIM ΔBRD = assay: AlphaScreen binding of H3 peptide to Yta7 lacking BIM and BRD; design: species or system Saccharomyces cerevisiae; conditions: 50 nM construct (320–350 and 954–1132 deleted), 50 nM biotinylated H3 (1–22), pH 7.4, on ice 1.5 h, n = 3, Fig. S9B
Method: as §1

[2] = system: complex of 6xHis-MBP-BRD and MBP-BIM; assay: AlphaScreen binding of H3 peptide to BRD and BIM together; design: species or system Saccharomyces cerevisiae
Method: as §1

[3] = AlphaScreen, three independent experiments in triplicate

With “24-residue H3 N-tail: unmodified H3 peptides (1–24 amino acids) (GenScript)” the “interaction with Yta7 (24-residue H3 N-tail)” value (Yta7; 24-residue H3 N-tail, Fig. S1, C and D) was “interacted with”.

For “Yta7: full-length S. cerevisiae Yta7 AAA+ ATPase hexamer, 10xHis and 3xFLAG tagged”, the ATP hydrolysis [1] was “hydrolyzed ATP”.

For “unmodified H3 peptide (1–22 amino acids)”, the “binding to Yta7_ΔBRD” value (Yta7_ΔBRD) was “neither Yta7_ΔBRD nor Yta7_ΔBIM ΔBRD bind”, the “binding signal to BIM alone” value (6xHis-MBP-BIM; 50 nM 6xHis-MBP-BIM, 50 nM biotinylated H3 (1–22), pH 7.4, on ice 1.5 h) was “weak binding signal” and the “binding signal to BIM alone relative to MBP control and BRD alone” value (6xHis-MBP-BIM; 6xHis-MBP negative control, compared with 6xHis-MBP-BRD) was “above the MBP control but weaker than BRD alone”. For the same substance, the “binding to Yta7_ΔBIM ΔBRD” value (Yta7_ΔBIM ΔBRD) was “neither Yta7_ΔBRD nor Yta7_ΔBIM ΔBRD bind”, the “binding to Yta7” value (Yta7; [3]) was “bound Yta7” and the “binding signal relative to the acetylated version” value (Yta7; AlphaScreen, 50 nM Yta7, 50 nM biotinylated H3 (1–22) peptides, pH 7.4, on ice 1.5 h, means of three independent experiments performed in triplicate, Fig. 2H) was “five times stronger”. The “affinity / binding in the presence of ADP or ATPγS” value (Yta7; AlphaScreen, biotinylated H3 (1-22 aa), in the presence of ADP or ATPγS, three independent experiments in triplicate, Fig. S1E) was “unaffected”, the “relative affinity, unmodified vs acetylated H3 peptide” value (Yta7; AlphaScreen, unmodified compared with acetylated H3 (1–22) peptide, qualitative, listed as unmodified peptide) was “higher affinity” and the “binding signal to BRD–BIM relative to Yta7 hexamer” value ([2]; BRD–BIM complex vs full-length Yta7 hexamer) was “an order of magnitude weaker”. The “binding signal to BIM and BRD together relative to BRD alone” value ([2]; complex of 6xHis-MBP-BRD and MBP-BIM vs 6xHis-MBP-BRD, 50 nM biotinylated H3 (1–22), pH 7.4, n = 3, Fig. S9D) was “stronger than BRD alone”.

For “acetylated H3 peptide (1–22 amino acids): biotinylated all-four-lysine acetylated H3 peptide (1–22 amino acids), synthesized by GenScript”, the “binding to Yta7” value (Yta7; [3]) was “bound Yta7”.

Reference: paper PMC9898759, “The Saccharomyces cerevisiae Yta7 ATPase hexamer contains a unique bromodomain tier that functions in nucleosome disassembly” (The Journal of Biological Chemistry, 2022)
